The source of these data is ChEMBL document CHEMBL4311957, “Recent advances in natural antifungal flavonoids and their derivatives” (Bioorg Med Chem Lett, 2019).

The test system of assay [1] is Cryptococcus neoformans. In words: Antifungal activity against Cryptococcus neoformans after 72 hrs. The assay is classed as functional.
Assay [2] relates to Nakaseomyces glabratus. The assay is described as follows: Antifungal activity against Candida glabrata 507 by microdilution method. The assay is classed as functional. (In general: Dilution methods test growth across graded concentrations, often in twofold steps.)
Assay [3] relates to Nakaseomyces glabratus. The assay is described as follows: Antifungal activity against Candida glabrata 493 by microdilution method. The assay is classed as functional.
Assay [4] has as its system Pichia kudriavzevii. The assay is described as follows: Antifungal activity against Candida krusei 168 by microdilution method. It is filed as functional.
In assay [5] the test system is Nakaseomyces glabratus. The assay is described as follows: Antifungal activity against Candida glabrata 587 by microdilution method. The assay is classed as functional.
Assay [6] deals with Candida albicans. The assay is described as follows: Antifungal activity against Candida albicans 498 by microdilution method. The assay is classed as functional.
In assay [7] the test system is Nakaseomyces glabratus. The assay is described as follows: Antifungal activity against Candida glabrata 531 by microdilution method. The assay is classed as functional.
Assay [8] has as its system Candida albicans. The assay is described as follows: Antifungal activity against Candida albicans 53 by microdilution method. It is filed as functional.
Assay [9] concerns Candida albicans. The assay is described as follows: Antifungal activity against Candida albicans ATCC 10231 by microdilution method. The assay is classed as functional.
The test system of assay [10] is Candida parapsilosis. The assay is described as follows: Antifungal activity against Candida parapsilosis 96 by microdilution method. It is filed as functional. The following applies: Lodderomyces parapsilosis.
Assay [11] has as its system Candida tropicalis. In words: Antifungal activity against Candida tropicalis 166 by microdilution method. The assay is classed as functional.
The test system of assay [12] is Nakaseomyces glabratus. In words: Antifungal activity against Candida glabrata 482 by microdilution method. It is filed as functional.
Assay [13] relates to Trichophyton rubrum. In words: Antifungal activity against Trichophyton rubrum after 5 days. It is filed as functional. The settings on record: 120 h.
The test system of assay [14] is Candida albicans. In words: Antifungal activity against Candida albicans 501 by microdilution method. The assay is classed as functional.
Assay [15] concerns Cryptococcus gattii. The assay is described as follows: Antifungal activity against Cryptococcus gattii after 72 hrs. The assay is classed as functional, Cryptococcus gattii VGI.
The subject of assay [16] is Nakaseomyces glabratus. In words: Antifungal activity against Candida glabrata 510 by microdilution method. The assay is classed as functional.
The subject of assay [17] is Nakaseomyces glabratus. The assay is described as follows: Antifungal activity against Candida glabrata ATCC 90030. It is filed as functional.
For assay [18], the system named is Candida parapsilosis. The assay is described as follows: Antifungal activity against Candida parapsilosis 90/2224. The assay is classed as functional. The following applies: Lodderomyces parapsilosis.
Assay [19] concerns Trichophyton rubrum. The assay is described as follows: Antifungal activity against Trichophyton rubrum NBRC 5467 by microdilution method. It is filed as functional.
The subject of assay [20] is Pichia kudriavzevii. The assay is described as follows: Antifungal activity against Candida krusei CK25. The assay is classed as functional.
The test system of assay [21] is Candida parapsilosis. The assay is described as follows: Antifungal activity against Candida parapsilosis ATCC 22014. The assay is classed as functional. The following applies: Lodderomyces parapsilosis.
In assay [22] the test system is Trichophyton mentagrophytes. In words: Antifungal activity against Trichophyton mentagrophytes IFM 46027 by microdilution method. It is filed as functional.
Assay [23] concerns Pichia kudriavzevii. The assay is described as follows: Antifungal activity against Candida krusei ATCC 6258. The assay is classed as functional.
In assay [24] the test system is Aspergillus fumigatus. The assay is described as follows: Antifungal activity against Aspergillus fumigatus NBRC 4400 by microdilution method. The assay is classed as functional.
Assay [25] deals with Nakaseomyces glabratus. In words: Antifungal activity against Candida glabrata WT-5. It is filed as functional.
In assay [26] the test system is Candida albicans. The assay is described as follows: Antifungal activity against Candida albicans NBRC 1385 by microdilution method. It is filed as functional.
Assay [27] has as its system Trichophyton rubrum. The assay is described as follows: Antifungal activity against Trichophyton rubrum ATCC MYA3108 by CLSI-based microdilution method. The assay is classed as functional.
Assay [28] deals with Trichophyton rubrum. In words: Antifungal activity against Trichophyton rubrum deltaTruMDR2 by CLSI-based microdilution method. It is filed as functional.
The subject of assay [29] is Candida albicans. The assay is described as follows: Antifungal activity against Candida albicans. The assay is classed as functional, organism-based.
Assay [30] concerns Cryptococcus neoformans. The assay is described as follows: Antifungal activity against Cryptococcus neoformans. The assay is classed as functional.
For assay [31], the system named is Trichophyton rubrum. The assay is described as follows: Antifungal activity against Trichophyton rubrum. It is filed as functional.

≈ marks a conversion by molar mass, not a printed value.

Turning to `O=c1c(O)c(-c2ccc(O)c(O)c2)oc2cc(O)ccc12` [FISETIN], the minimal inhibitory concentration (MIC) in assay [1] is 128 µg/mL (≈ 447 µM); in [2], 7.8 to 15.6 µg/mL (≈ 27.2 to 54.5 µM); in assay [3], 7.8 to 15.6 µg/mL (≈ 27.2 to 54.5 µM); in [4], more than 83 µg/mL; in assay [5] it was 7.8 to 15.6 µg/mL (≈ 27.2 to 54.5 µM); in assay [6] it was more than 83 µg/mL. The MIC in assay [7] is 7.8 to 15.6 µg/mL (≈ 27.2 to 54.5 µM); in assay [8], more than 83 µg/mL; in [9], more than 83 µg/mL; in assay [10], more than 83 µg/mL; in assay [11], more than 83 µg/mL; in assay [12], 7.8 to 15.6 µg/mL (≈ 27.2 to 54.5 µM). Also, the minimal inhibitory concentration (MIC) in assay [13] was 64 µg/mL (≈ 224 µM); in assay [14], more than 83 µg/mL; in assay [15] it was 128 µg/mL (≈ 447 µM); in [16], 7.8 to 15.6 µg/mL (≈ 27.2 to 54.5 µM).

For `O=c1cc(-c2ccccc2)oc2ccccc12` [FLAVONE], the minimum inhibitory concentration (MIC) is 52.7 µg/mL (≈ 237 µM) in assay [17]; 5.4 µg/mL (≈ 24.3 µM) in [18]; 120 µM in assay [19]; 2.7 µg/mL (≈ 12.1 µM) in assay [20]; 62.5 µg/mL (≈ 281 µM) in assay [2]; 5.4 µg/mL (≈ 24.3 µM) in assay [21]. In addition, the minimal inhibitory concentration (MIC) was 60 µM in assay [22]; 62.5 µg/mL (≈ 281 µM) in [3]; 62.5 µg/mL (≈ 281 µM) in assay [5]; 2.7 µg/mL (≈ 12.1 µM) in assay [23]; more than 83 µg/mL in [6]; 62.5 µg/mL (≈ 281 µM) in [7]. In addition, the minimum inhibitory concentration (MIC) in assay [8] is more than 83 µg/mL; in assay [9], more than 83 µg/mL; in assay [10], more than 83 µg/mL; in assay [11], more than 83 µg/mL; in assay [24], 230 µM; in assay [25] it was 52.7 µg/mL (≈ 237 µM). For the same compound, the MIC was 62.5 µg/mL (≈ 281 µM) in assay [12], 30 µM (≈ 6.67 µg/mL) in assay [26], more than 83 µg/mL in [14] and 62.5 µg/mL (≈ 281 µM) in assay [16]. Besides, the MIC50 in [10] and in assay [11] was 13 to 104 µg/mL (≈ 58.5 to 468 µM) each time.

For `O=c1c(O)c(-c2ccccc2)oc2ccccc12` [FLAVONOL], the MIC in assay [2] was 3.9 to 15.6 µg/mL (≈ 16.4 to 65.5 µM); in assay [3], 3.9 to 15.6 µg/mL (≈ 16.4 to 65.5 µM); in assay [4], more than 83 µg/mL; in [5] it was 3.9 to 15.6 µg/mL (≈ 16.4 to 65.5 µM); in assay [6] it was more than 83 µg/mL; in assay [7], 3.9 to 15.6 µg/mL (≈ 16.4 to 65.5 µM). The minimal inhibitory concentration (MIC) in [8] is more than 83 µg/mL; in [9] it was more than 83 µg/mL; in assay [10], more than 83 µg/mL; in [11] it was more than 83 µg/mL; in [12], 3.9 to 15.6 µg/mL (≈ 16.4 to 65.5 µM); in assay [14], more than 83 µg/mL. The compound also returned an MIC in assay [16] of 3.9 to 15.6 µg/mL (≈ 16.4 to 65.5 µM).

Turning to `O=c1c(-c2ccc(O)cc2)coc2cc(O)cc(O)c12` [GENISTEIN], the MIC in assay [27] and in assay [28] was more than 1000 µg/mL throughout.

Consider `CC(C)=CCc1c(O)ccc(C(=O)/C=C/c2ccc(O)cc2)c1O` [ISOBAVACHALCONE], for which the values for the MIC50 in assay [29] and in assay [30] were 3 µg/mL (≈ 9.25 µM) and 7 µg/mL (≈ 21.6 µM), respectively.

With `O=c1c(O)c(-c2ccc(O)cc2)oc2cc(O)cc(O)c12` [KAEMPFEROL], the MIC in assay [29] is 256 to 512 µg/mL; in assay [2] it was 31.2 µg/mL (≈ 109 µM); in [3], 31.2 µg/mL (≈ 109 µM); in assay [4], more than 83 µg/mL; in [5], 31.2 µg/mL (≈ 109 µM); in assay [6], more than 83 µg/mL. In addition, the minimal inhibitory concentration (MIC) was 31.2 µg/mL (≈ 109 µM) in [7]; more than 83 µg/mL in assay [8]; more than 83 µg/mL in assay [9]; more than 83 µg/mL in assay [10]; more than 83 µg/mL in assay [11]; 31.2 µg/mL (≈ 109 µM) in assay [12]. Moreover, the MIC in assay [14] is more than 83 µg/mL; in [16] it was 31.2 µg/mL (≈ 109 µM).

In [29], `C=CC(C)(C)c1cc(/C=C/C(=O)c2ccc(O)cc2)c(OC)cc1O` [LICOAGROCHACONE A] showed an MFC of 150 µM (≈ 50.8 µg/mL) and a minimal inhibitory concentration (MIC) of 62.4 to 150 µM. In assay [31], this compound gave a minimal inhibitory concentration (MIC) of 11.5 µM.

Turning to `O=c1cc(-c2ccc(O)c(O)c2)oc2cc(O)cc(O)c12` [LUTEOLIN], the MIC in assay [17] is 52.7 µg/mL (≈ 184 µM); in assay [18], 5.4 µg/mL (≈ 18.9 µM); in assay [19], 120 µM; in [20] it was 2.7 µg/mL (≈ 9.43 µM); in [2] it was 3.9 to 7.8 µg/mL (≈ 13.6 to 27.2 µM); in [21], 5.4 µg/mL (≈ 18.9 µM). The MIC is 60 µM in [22]; 3.9 to 7.8 µg/mL (≈ 13.6 to 27.2 µM) in assay [3]; 3.9 to 7.8 µg/mL (≈ 13.6 to 27.2 µM) in assay [5]; 2.7 µg/mL (≈ 9.43 µM) in [23]; more than 83 µg/mL in [6]; 3.9 to 7.8 µg/mL (≈ 13.6 to 27.2 µM) in [7]. The minimal inhibitory concentration (MIC) is more than 83 µg/mL in assay [8]; more than 83 µg/mL in [9]; more than 83 µg/mL in assay [10]; more than 83 µg/mL in assay [11]; 230 µM in assay [24]; 52.7 µg/mL (≈ 184 µM) in assay [25]. Besides, the MIC in assay [12] is 3.9 to 7.8 µg/mL (≈ 13.6 to 27.2 µM); in [26], 30 µM (≈ 8.59 µg/mL); in assay [14] it was more than 83 µg/mL; in assay [31], 250 µg/mL; in assay [16], 3.9 to 7.8 µg/mL (≈ 13.6 to 27.2 µM). Also, the MIC50 in assay [10] and in assay [11] was 13 to 104 µg/mL (≈ 45.4 to 363 µM) each time.

In the case of `C[C@@H]1O[C@@H](Oc2c(-c3ccc(O)c(O)c3)oc3cc(O)cc(O)c3c2=O)[C@H](O)[C@H](O)[C@H]1O` [QUERCITRIN], the minimum inhibitory concentration (MIC) in [2] is 7.8 to 62.5 µg/mL (≈ 17.4 to 139 µM); in assay [3], 7.8 to 62.5 µg/mL (≈ 17.4 to 139 µM); in assay [4], more than 83 µg/mL; in assay [5] it was 7.8 to 62.5 µg/mL (≈ 17.4 to 139 µM); in [6], more than 83 µg/mL; in [7], 7.8 to 62.5 µg/mL (≈ 17.4 to 139 µM). Besides, the minimal inhibitory concentration (MIC) is more than 83 µg/mL in assay [8]; more than 83 µg/mL in assay [9]; more than 83 µg/mL in assay [10]; more than 83 µg/mL in assay [11]; 7.8 to 62.5 µg/mL (≈ 17.4 to 139 µM) in assay [12]; more than 83 µg/mL in assay [14]. Also, the minimal inhibitory concentration (MIC) in [16] was 7.8 to 62.5 µg/mL (≈ 17.4 to 139 µM).

`COc1c(O)cc(O)c2c(=O)cc(-c3ccccc3)oc12` [WOGONIN]: the minimum inhibitory concentration (MIC) is 60 µg/mL in assay [19], 60 µg/mL in assay [22] and 230 µg/mL in [24].

A word on the MIC: it is the least concentration at which growth counts as inhibited. For orientation: MIC50 means the lowest concentration that inhibits either 50% of growth or 50% of the strains tested, depending on the study. Read a high MIC50 as lower susceptibility. As usually defined, the MFC is the lowest tested concentration that kills the fungus rather than only halting it.
